Data published in patent US20230255953A1, “USE OF ROLUPERIDONE IN PREVENTING RELAPSE IN SCHIZOPHRENIA PATIENTS” (Minerva Neurosciences, Inc., priority 2022, published 2023).

Key:
[1] = tested on: muscarinic receptors; settings: background statement; cited from earlier work
[2] = tested on: patients with negative symptoms of schizophrenia; assay: Study #2 (MIN-101C07): Total Verbal Fluency; type: in vivo, human; settings: Week 12 DB, ITT
Excerpt: (§1) Study #2 (also referred to as “MIN101C07”) was a Phase 3, randomized, DB, placebo-controlled, parallel-group 12-week study to evaluate the efficacy and safety of Roluperidone in patients ≥18 years to ≤55 years with negative symptoms of schizophrenia, followed by a 40-week OL extension. The study consisted of a pretreatment screening period of up to 28 days (including an antipsychotic medication washout period), a 12-week, DB, placebo-controlled period, and a 40-week OL period. Eligible patients (with moderate to severe negative symptoms of schizophrenia and stable positive symptoms but without severe symptoms of suspiciousness, agitation, hostility, uncooperativeness, or poor impulse control) were randomized 1:1:1 to receive Roluperidone 32 mg QD, Roluperidone 64 mg QD (GR01/B formulation, see U.S. Pat. No. 11,464,744), or placebo, orally, for 12 weeks. […] During the 40-week OL treatment extension, patients who were initially randomized to Roluperidone 32 mg or 64 mg continued treatment with the same dose, while patients who were initially randomized to placebo crossed over to Roluperidone 32 mg or 64 mg in a 1:1 ratio.

[3] = tested on: schizophrenia patient; assay: Case report Patient X: Roluperidone monotherapy over 2+ years; type: in vivo, human; settings: 64 mg/day monotherapy, two years
Procedure: Patient X presented with flat effect and restricted emotional expression, poor motivation to do much more than watch television and occasionally participate in occupational therapy for a few hours a week. Patient could not fully concentrate enough to even read. During the course of monotherapy with Roluperidone (64 mg/day), patient saw gradual improvement in their negative and cognitive symptoms. This allowed the patient to find employment. Their affect is no longer restricted and they read full novels on a regular basis with no trouble concentrating, and enjoys and looks forward to all their various daily activities.

[4] = tested on: patients with negative symptoms of schizophrenia; assay: Study #2 (MIN-101C07): Personal and Social Performance (PSP); type: in vivo, human; parameters: key to PSP total score, LS mean difference vs placebo in change from Baseline / Mean change in PSP Total score from Active Baseline / Change from Baseline LS Mean: PSP Total Score (ITT) / Change from Baseline LS Mean: PSP Total Score (mITT): PSP Total score points (1–100 scale, higher = better functioning); settings: for Change from Baseline LS Mean: PSP Total Score (ITT) / Change from Baseline LS Mean: PSP domain Disturbing and Aggressive Behaviors / Change from Baseline LS Mean: PSP domain Personal and Social Relationships / Change from Baseline LS Mean: PSP domain Self-Care / Change from Baseline LS Mean: PSP domain Socially Useful Activities / Effect Size (Cohen's d) vs Placebo: PSP Total Score (ITT) / Effect Size (Cohen's d) vs Placebo: PSP domain Disturbing and Aggressive Behaviors / Effect Size (Cohen's d) vs Placebo: PSP domain Personal and Social Relationships / Effect Size (Cohen's d) vs Placebo: PSP domain Self-Care / Effect Size (Cohen's d) vs Placebo: PSP domain Socially Useful Activities: ITT; for Mean change in PSP Total score from Active Baseline: Week 52, OL
Excerpt: The PSP is a validated clinician-rated scale intended to reflect real-life situations that measures personal and social functioning in 4 domains: (a) socially useful activities, (b) personal and social relationships, (c) self-care, and (d) disturbing and aggressive behaviors. The score is based on the assessment of a patient's performance in the 4 domains. The PSP Total score is a single measurement of functioning ranging from 1 to 100, where a higher score represents better functioning. A score of 91 to 100 indicates excellent functioning in all 4 main areas; the patient is held in high consideration for their good qualities, copes adequately with life problems, and is involved in a wide range of interests and activities. A score of 1 to 10 indicates a lack of autonomy in basic functioning with extreme behaviors but without survival risk (score 6 to 10) or with survival risk (score 1 to 5). […] Review of the relevant scientific literature and the analysis of the psychometric properties of the 4 domains that result in the generation of the PSP Total score were supportive of the appropriateness and cross-cultural applicability of the use of the PSP in drug development for the indication of negative symptoms of schizophrenia The PSP was assessed at the timepoints described in Table 6. The changes from Baseline in the PSP Total score and individual domain scores after 12 weeks of treatment were exploratory efficacy endpoints in Study MIN-101C03, and the Total score was the key secondary efficacy endpoint and the PSP domain scores were exploratory endpoints in Study MIN-101C07.
as §1

1H-Isoindol-1-one,2-[ [1-[2-(4-fluorophenyl)-2-oxoethyl]-4-piperidinyl]methyl]-2,3-dihydro-, hydrochloride, hydrate (1:1:2) [Roluperidone]
Affinity [1]: very low or no affinity
Change from Baseline LS Mean: Total Verbal Fluency (sum of 3 trials) ([2]; 32 mg QD): 3.9
Effect Size (Cohen's d) vs Placebo: Total Verbal Fluency ([2]; 32 mg QD): 0.21
Change from Baseline LS Mean: Total Verbal Fluency (sum of 3 trials) ([2]; 64 mg QD): 1.7
Effect Size (Cohen's d) vs Placebo: Total Verbal Fluency ([2]; 64 mg QD): −0.10
Relapse under monotherapy [3]: has not had a relapse
Effect Size (Cohen's w) vs Placebo: 7-Point improvement in PSP Total Score responders ([4]; 32 mg QD, Week 12 DB): 0.03
Effect Size (Cohen's w) vs Placebo: 10-Point improvement in PSP Total Score responders ([4]; 32 mg QD, Week 12 DB): 0.01
Number of Patients with 7-Point improvement in PSP Total Score at Week 12 ([4]; 32 mg QD, Week 12 DB): 37/116
Number of Patients with 10-Point improvement in PSP Total Score at Week 12 ([4]; 32 mg QD, Week 12 DB): 26/116
Patients with 7-Point improvement in PSP Total Score at Week 12 (%) ([4]; 32 mg QD, Week 12 DB): (32%)
Patients with 10-Point improvement in PSP Total Score at Week 12 (%) ([4]; 32 mg QD, Week 12 DB): (22%)
Change from Baseline LS Mean: PSP Total Score (ITT) ([4]; 32 mg QD, Week 12 DB): 4.5
Change from Baseline LS Mean: PSP domain Disturbing and Aggressive Behaviors ([4]; 32 mg QD, Week 12 DB): 0.0
Change from Baseline LS Mean: PSP domain Personal and Social Relationships ([4]; 32 mg QD, Week 12 DB): −0.4
Change from Baseline LS Mean: PSP domain Self-Care ([4]; 32 mg QD, Week 12 DB): −0.4
Change from Baseline LS Mean: PSP domain Socially Useful Activities ([4]; 32 mg QD, Week 12 DB): −0.3
Effect Size (Cohen's d) vs Placebo: PSP Total Score (ITT) ([4]; 32 mg QD, Week 12 DB): 0.07
Effect Size (Cohen's d) vs Placebo: PSP domain Disturbing and Aggressive Behaviors ([4]; 32 mg QD, Week 12 DB): 0.00
Effect Size (Cohen's d) vs Placebo: PSP domain Personal and Social Relationships ([4]; 32 mg QD, Week 12 DB): 0.15
Effect Size (Cohen's d) vs Placebo: PSP domain Self-Care ([4]; 32 mg QD, Week 12 DB): 0.15
Effect Size (Cohen's d) vs Placebo: PSP domain Socially Useful Activities ([4]; 32 mg QD, Week 12 DB): 0.02
Change from Baseline LS Mean: PSP Total Score (mITT) ([4]; 32 mg QD, Week 12 DB): 4.4
Effect Size (Cohen's d) vs Placebo: PSP Total Score (mITT) ([4]; 32 mg QD, Week 12 DB): 0.07
Effect Size (Cohen's w) vs Placebo: 7-Point improvement in PSP Total Score responders ([4]; 64 mg QD, Week 12 DB): 0.13
Effect Size (Cohen's w) vs Placebo: 10-Point improvement in PSP Total Score responders ([4]; 64 mg QD, Week 12 DB): 0.10
Number of Patients with 7-Point improvement in PSP Total Score at Week 12 ([4]; 64 mg QD, Week 12 DB): 50/122
Number of Patients with 10-Point improvement in PSP Total Score at Week 12 ([4]; 64 mg QD, Week 12 DB): 37/122
Change from Baseline LS Mean: PSP Total Score (ITT) ([4]; 64 mg QD, Week 12 DB): 6.1
Change from Baseline LS Mean: PSP domain Disturbing and Aggressive Behaviors ([4]; 64 mg QD, Week 12 DB): 0.0
Change from Baseline LS Mean: PSP domain Personal and Social Relationships ([4]; 64 mg QD, Week 12 DB): −0.3
Change from Baseline LS Mean: PSP domain Self-Care ([4]; 64 mg QD, Week 12 DB): −0.3
Change from Baseline LS Mean: PSP domain Socially Useful Activities ([4]; 64 mg QD, Week 12 DB): −0.4
Effect Size (Cohen's d) vs Placebo: PSP Total Score (ITT) ([4]; 64 mg QD, Week 12 DB): 0.27
Effect Size (Cohen's d) vs Placebo: PSP domain Disturbing and Aggressive Behaviors ([4]; 64 mg QD, Week 12 DB): −0.07
Effect Size (Cohen's d) vs Placebo: PSP domain Personal and Social Relationships ([4]; 64 mg QD, Week 12 DB): 0.00
Effect Size (Cohen's d) vs Placebo: PSP domain Self-Care ([4]; 64 mg QD, Week 12 DB): 0.04
Effect Size (Cohen's d) vs Placebo: PSP domain Socially Useful Activities ([4]; 64 mg QD, Week 12 DB): 0.18
Change from Baseline LS Mean: PSP Total Score (mITT) ([4]; 64 mg QD, Week 12 DB): 6.2
Effect Size (Cohen's d) vs Placebo: PSP Total Score (mITT) ([4]; 64 mg QD, Week 12 DB): 0.29
PSP total score, LS mean difference vs placebo in change from Baseline ([4]; 64 mg, Week 12, ITT): 2.2
PSP Total score, course in OL period ([4]; OL period): continued improvement was seen
Mean change in PSP Total score from Active Baseline ([4]; placebo to 32 mg group): 11.7
Mean change in PSP Total score from Active Baseline ([4]; placebo to 64 mg group): 11.8
